Experimental data as given in patent US11945796B2, “Substituted pyridine derivatives as SARM1 inhibitors” (Nura Bio, Inc., priority 2020, dated 2024).
pIC50: −log10 of the molar value. Read-outs that look alike come from different tables or passages of the source.

Target: T1, human SARM1(50-724) (Homo sapiens, UniProt Q6SZW1)
T1 construct: 40 nM human SARM1(50-724)
T1 sequence (Q6SZW1 50-724): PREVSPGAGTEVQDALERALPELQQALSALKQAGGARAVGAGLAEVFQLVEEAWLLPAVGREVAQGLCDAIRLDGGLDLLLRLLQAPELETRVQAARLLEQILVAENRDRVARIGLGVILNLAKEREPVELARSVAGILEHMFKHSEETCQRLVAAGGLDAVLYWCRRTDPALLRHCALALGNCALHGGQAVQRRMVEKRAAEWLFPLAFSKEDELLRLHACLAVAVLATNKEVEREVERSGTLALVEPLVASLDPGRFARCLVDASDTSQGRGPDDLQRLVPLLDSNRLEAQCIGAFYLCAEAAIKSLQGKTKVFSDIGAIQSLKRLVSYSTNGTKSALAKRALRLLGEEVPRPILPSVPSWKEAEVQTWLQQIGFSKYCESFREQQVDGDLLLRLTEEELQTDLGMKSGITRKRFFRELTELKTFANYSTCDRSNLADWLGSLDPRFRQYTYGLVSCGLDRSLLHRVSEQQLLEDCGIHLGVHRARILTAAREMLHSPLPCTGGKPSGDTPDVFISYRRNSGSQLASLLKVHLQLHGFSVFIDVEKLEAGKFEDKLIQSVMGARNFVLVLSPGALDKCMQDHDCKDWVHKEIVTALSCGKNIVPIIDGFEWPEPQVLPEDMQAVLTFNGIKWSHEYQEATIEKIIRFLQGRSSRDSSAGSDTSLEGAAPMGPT
Assay: SARM1 NADase biochemical assay (HPLC peak areas of NAD and NAM)
Conditions: for pIC50: dose-response, 1:3 serial dilution from 100 μM, 40 nM SARM1, 0.3 mM NMN, 20 μM NAD, 60 min rt
Procedure: The reaction was incubated at room temperature for 60 minutes and quenched with 20 μL of 0.4% formic acid. […] Total run time for each sample was 4 minutes. […] Samples were run at a flow rate of 0.8 mL/min at 55° C. Peak areas of NAD and NAM were determined using OpenLAB CDS (Chem Station edition) software. For dose-response, the compound was diluted serially 1:3 in DMSO and added to the reaction starting at a final compound concentration of 100 μM in 1% DMSO.

Row | pIC50 | Structure (SMILES) | inhibition at 50 µM (read-out: Avg NAD % inhibition at 50 μM) [%] | inhibition at 50 µM (read-out: Avg NAM % inhibition at 50 μM) [%]
1 | > 6.00 | CC(c1ccncc1)n1ccc(Nc2nccs2)n1 (racemic) [Example 1, (rac)-N-(1-(1-(Pyridin-4-yl)ethyl)-1H-pyrazol-3-yl)thiazol-2-amine] | – | –
2 | 5.00 to 6.00 | CC(c1ccncc1)n1ccc(NCC#N)n1 (racemic) [Example 5, (rac)-2-((1-(1-(Pyridin-4-yl)ethyl)-1H-pyrazol-3-yl)amino)acetonitrile] | – | –
3 | 5.00 to 6.00 | CC(C)Cn1ccc(C(C)c2ccncc2)n1 (racemic) [Example 11, (rac)-4-(1-(1-Isobutyl-1H-pyrazol-3-yl)ethyl)pyridine] | – | –
4 | 5.00 to 6.00 | Cc1cnccc1C(C)n1ccc(NCC(F)(F)F)n1 (racemic) [Example 14, (rac)-1-(1-(3-Methylpyridin-4-yl)ethyl)-N-(2,2,2-trifluoroethyl)-1H-pyrazol-3-amine] | – | –
5 | 5.00 to 6.00 | CC(c1ccncc1)c1ccn(CC(F)F)n1 (racemic) [Example 18, (rac)-4-(1-(1-(2,2-Difluoroethyl)-1H-pyrazol-3-yl)ethyl)pyridine] | – | –
6 | 5.00 to 6.00 | CC(c1ccncc1)n1ccc(NC(=O)c2ccc3c(c2)OCO3)n1 (racemic) [Example 19, (rac)-N-(1-(1-(Pyridin-4-yl)ethyl)-1H-pyrazol-3-yl)benzo[d][1,3]dioxole-5-carboxamide] | – | –
7 | 5.00 to 6.00 | [2H]C([2H])([2H])C(c1ccncc1)c1ccn(CC(F)(F)F)n1 (racemic) [Example 21, (rac)-4-(1-(1-(2,2,2-Trifluoroethyl)-1H-pyrazol-3-yl)ethyl-2,2,2-d3)pyridine] | – | –
8 | 5.00 to 6.00 | CC(c1ccncc1)c1nn(CC(F)(F)F)cc1F (racemic) [Example 22, (rac)-4-(1-(4-Fluoro-1-(2,2,2-trifluoroethyl)-1H-pyrazol-3-yl)ethyl)pyridine] | – | –
9 | > 6.00 | CC(c1ccncc1)c1ccn(CC(F)(F)F)n1 (racemic) [Example 24, (rac)-4-(1-(1-(2,2,2-Trifluoroethyl)-1H-pyrazol-3-yl)ethyl)pyridine] | – | –
10 | 5.00 to 6.00 | [2H]C([2H])([2H])C(c1ccncc1)c1ccn(CC(F)F)n1 (racemic) [Example 25, (rac)-4-(1-(1-(2,2-Difluoroethyl)-1H-pyrazol-3-yl)ethyl-2,2,2-d3)pyridine] | – | –
11 | 4.00 to 5.00 | FC(c1ccncc1)c1ccn(CC(F)(F)F)n1 (racemic) [Example 79, (rac)-4-(Fluoro(1-(2,2,2-trifluoroethyl)-1H-pyrazol-3-yl)methyl)pyridine] | – | –
12 | > 6.00 | [2H]C([2H])([2H])C([2H])(c1ccncc1)c1ccn(CC(F)(F)F)n1 (racemic) [Example 80, (rac)-4-(1-(1-(2,2,2-Trifluoroethyl)-1H-pyrazol-3-yl)ethyl-1,2,2,2-d4)pyridine] | – | –
13 | 4.00 to 5.00 | FC(F)(F)Cn1ccc(C(Cl)c2ccncc2)n1 (racemic) [Example 81, (rac)-4-(Chloro(1-(2,2,2-trifluoroethyl)-1H-pyrazol-3-yl)methyl)pyridine] | – | –
14 | > 6.00 | [2H]C(C)(c1ccncc1)c1ccn(CC(F)(F)F)n1 (racemic) [Example 82, (rac)-4-(1-(1-(2,2,2-Trifluoroethyl)-1H-pyrazol-3-yl)ethyl-1-d)pyridine] | – | –
15 | – | CC(c1ccncc1)n1ccc(N(C)c2nccs2)n1 (racemic) [Example 91, (rac)-N-Methyl-N-(1-(1-(pyridin-4-yl)ethyl)-1H-pyrazol-3-yl)thiazol-2-amine] | 0 to 50 | 0 to 50
16 | 4.00 to 5.00 | CC(c1ccncc1)c1ccn(Cc2ccccc2)n1 (racemic) [Example 92, (rac)-4-(1-(1-Benzyl-1H-pyrazol-3-yl)ethyl)pyridine] | – | –
17 | 4.00 to 5.00 | CCC(c1ccncc1)n1ccc(NCC(F)(F)F)n1 (racemic) [Example 99, (rac)-1-(1-(Pyridin-4-yl)propyl)-N-(2,2,2-trifluoroethyl)-1H-pyrazol-3-amine] | – | –
18 | 5.00 to 6.00 | CC(c1ccncc1)n1ccc(NC(C)C(F)(F)F)n1 (racemic) [Example 100, (rac)-1-(1-(Pyridin-4-yl)ethyl)-N-(1,1,1-trifluoropropan-2-yl)-1H-pyrazol-3-amine] | – | –
